# Results as given in ChEMBL document CHEMBL4421722, “Inhibitors of protein prenyltransferases” (2013).
# Species on record: Rattus norvegicus
# Assay: Inhibition of rat recombinant geranylgeranyltransferase type I expressed in Escherichia coli assessed as residual enzyme activity for geranylgeranylation of K-Ras4B at 50 uM incubated for 30 mins in presence of [3H]GGPP by scintillation counting assay relative to control
row,Compound,Activity [%]
1,Cc1ccc(S(=O)(=O)N2[C@@H](c3cccc(C)c3)C(C(=O)O)=CC[C@H]2c2ccccc2F)cc1,62.8
2,COc1cccc([C@@H]2CC=C(C(=O)O)[C@H](c3ccc(C(C)(C)C)cc3)N2S(=O)(=O)c2ccc(C)cc2)c1,95.8
3,Cc1ccc(S(=O)(=O)N2[C@@H](c3cccc(F)c3)C(C(=O)O)=CC[C@H]2c2ccc(Cl)c(Cl)c2)cc1,45.1
4,CS(=O)(=O)N1[C@@H](c2ccc(F)cc2)C(C(=O)O)=CC[C@H]1c1ccccc1,67.2
5,Cc1ccc(S(=O)(=O)N2[C@@H](c3ccc(F)cc3)C(C(=O)O)=CC[C@H]2c2ccc(C#N)cc2)cc1,65.1
6,COc1ccc([C@@H]2C[C@@H](Sc3ccccc3)[C@H](C(=O)O)CN2S(=O)(=O)c2ccccc2C)cc1,84.8
7,Cc1ccc(S[C@@H]2C[C@@H](c3ccc4c(c3)OCO4)N(S(=O)(=O)c3ccc(C)cc3)C[C@H]2C(=O)O)cc1,77.8
8,CCOc1ccc([C@@H]2CC=C(C(=O)O)[C@H](c3ccc(C(C)(C)C)cc3)N2S(=O)(=O)c2ccc(C)cc2)cc1,58.7
9,Cc1ccc([C@@H]2CC=C(C(=O)O)[C@H](c3cccc(Cl)c3)N2S(=O)(=O)c2ccccc2C)cc1,62.3
10,Cc1ccc([C@@H]2CC=C(C(=O)O)[C@H](c3cccc(Cl)c3)N2S(=O)(=O)c2ccc(Cl)cc2)cc1,8.4 to 60
11,Cc1ccc([C@H]2C(C(=O)O)=CC[C@@H](c3ccc(C#N)cc3)N2S(=O)(=O)c2ccc(C)cc2)cc1,90.9
12,Cc1ccc([C@H]2C(C(=O)O)=CC[C@@H](c3cccc(Cl)c3)N2S(=O)(=O)c2ccc(C)cc2)cc1,66.1
13,Cc1ccc(S(=O)(=O)N2[C@@H](c3ccc(Cl)cc3)C(C(=O)O)=CC[C@H]2c2cccc(Cl)c2)cc1,60.4
14,COC(=O)c1ccccc1S(=O)(=O)N1[C@@H](c2ccc(C)cc2)C(C(=O)O)=CC[C@H]1c1ccc(C)cc1,89.4
15,Cc1ccc([C@H]2C(C(=O)O)=CC[C@@H](c3ccc(Cl)cc3)N2S(=O)(=O)c2ccc(Cl)cc2)cc1,53.9
16,Cc1ccc([C@@H]2C[C@@H](SCc3ccc(Cl)cc3)[C@H](C(=O)O)CN2S(C)(=O)=O)cc1,51.1
17,COc1ccc([C@@H]2C[C@@H](SCc3ccc(C(C)(C)C)cc3)[C@H](C(=O)O)CN2S(=O)(=O)c2ccc(Cl)cc2)cc1,66
18,Cc1ccc(S(=O)(=O)N2[C@@H](c3cccc(F)c3)C(C(=O)O)=CC[C@H]2c2cccc(F)c2)cc1,69.9

row,Compound,Activity [%]
1,Cc1ccc(S[C@@H]2C[C@@H](c3ccccc3)N(S(=O)(=O)c3ccc(C)cc3)C[C@H]2C(=O)O)cc1,98
2,Cc1ccc([C@@H]2C[C@@H](Sc3ccc(Cl)cc3)[C@H](C(=O)O)CN2S(=O)(=O)c2ccc(C)cc2)cc1,57
3,COc1ccc([C@@H]2CC=C(C(=O)O)[C@H](c3cccc(C)c3)N2S(=O)(=O)c2ccc(C)cc2)cc1OC,76
4,Cc1ccc([C@@H]2CC=C(C(=O)O)[C@H](c3ccc(C(C)(C)C)cc3)N2S(=O)(=O)c2ccccc2C)cc1,80.9
5,COc1ccc([C@@H]2CC=C(C(=O)O)[C@H](c3cccc(Br)c3)N2S(=O)(=O)c2ccccc2C)cc1,51.9
6,Cc1ccc([C@H]2C(C(=O)O)=CC[C@@H](c3ccccc3)N2S(=O)(=O)c2ccc(C)cc2)cc1,87.5
7,COc1ccc([C@@H]2CC=C(C(=O)O)[C@H](c3ccc(Br)cc3)N2S(=O)(=O)c2ccc(C)cc2)cc1OC,74
8,Cc1ccc([C@H]2C(C(=O)O)=CC[C@@H](c3ccc(C)cc3)N2S(=O)(=O)c2ccccc2)cc1,99.8
9,Cc1ccc([C@@H]2CC=C(C(=O)O)[C@H](c3ccc(Cl)cc3)N2S(=O)(=O)c2ccccc2C)cc1,86.8
10,Cc1ccc(S(=O)(=O)N2[C@@H](c3cccc(Br)c3)C(C(=O)O)=CC[C@H]2c2ccc(C(C)C)cc2)cc1,41.1
11,CCc1ccc([C@@H]2CC=C(C(=O)O)[C@H](c3ccc(Cl)cc3)N2S(=O)(=O)c2ccc(C)cc2)cc1,89.8
12,CCS[C@@H]1C[C@@H](c2ccc(Cl)cc2)N(S(=O)(=O)c2ccccc2C)C[C@H]1C(=O)O,63.2
13,COc1cccc([C@@H]2CC=C(C(=O)O)[C@H](c3cccc(C)c3)N2S(=O)(=O)c2ccc(C)cc2)c1,98.6
14,Cc1ccc(S(=O)(=O)N2[C@@H](c3cccc(Br)c3)C(C(=O)O)=CC[C@H]2c2ccccc2)cc1,65.9
15,CC(=O)C1=CC[C@@H](c2ccc(C)cc2)N(S(=O)(=O)c2ccc(Cl)cc2)C1,112
16,Cc1ccc(S(=O)(=O)N2[C@@H](c3cccc(C)c3)C(C(=O)O)=CC[C@H]2c2ccc(Cl)cc2)cc1,66
17,Cc1ccc(S(=O)(=O)N2[C@@H](c3ccc(Cl)cc3)C(C(=O)O)=CC[C@H]2c2ccc(Cl)cc2)cc1,52.8

# Further lines, results first:
row,Activity [%],Compound
1,93.6,CCCCCCS[C@@H]1C[C@@H](c2cc(OC)c(OC)c(OC)c2)N(S(=O)(=O)c2ccc(C)cc2)C[C@H]1C(=O)O
2,66.3,Cc1ccc([C@@H]2C[C@@H](SCC(C)C)[C@H](C(=O)O)CN2S(=O)(=O)c2ccc(Cl)cc2)cc1
3,87.8,CCS[C@@H]1C[C@@H](c2ccc(Cl)cc2)N(S(=O)(=O)c2ccc(C)cc2)C[C@H]1C(=O)O
4,50.9,Cc1ccc([C@@H]2C[C@@H](SCc3ccc(Cl)cc3)[C@H](C(=O)O)CN2S(=O)(=O)c2ccc(C)cc2)cc1
5,72.9,CCS[C@@H]1C[C@@H](c2ccc(OC)cc2)N(S(=O)(=O)c2ccc(Cl)cc2)C[C@H]1C(=O)O
6,109,C=CCS[C@@H]1C[C@@H](c2ccc(OC)c(OC)c2)N(S(=O)(=O)c2ccc(C)cc2)C[C@H]1C(=O)O
7,89.1,CCCCCS[C@@H]1C[C@@H](c2ccc(OCC)cc2)N(S(=O)(=O)c2ccc(C)cc2)C[C@H]1C(=O)O
8,105,COc1ccc([C@@H]2C[C@@H](SCc3ccccc3)[C@H](C(=O)O)CN2S(=O)(=O)c2ccc(C)cc2)cc1
9,88.8,CCCCS[C@@H]1C[C@@H](c2ccc(OC)cc2)N(S(=O)(=O)c2ccccc2C)C[C@H]1C(=O)O
10,34.4,COc1cccc([C@@H]2C[C@@H](SCc3ccc(Cl)cc3)[C@H](C(=O)O)CN2S(=O)(=O)c2ccc(C)cc2)c1
11,63.7,COc1cc([C@@H]2C[C@@H](SCc3ccccc3)[C@H](C(=O)O)CN2S(=O)(=O)c2ccc(C)cc2)cc(OC)c1OC
12,97.2,CCCCCCS[C@@H]1C[C@@H](c2ccc(OC)c(OC)c2)N(S(=O)(=O)c2ccc(C)cc2)C[C@H]1C(=O)O
13,74.4,CCS[C@@H]1C[C@@H](c2ccc(OC)c(OC)c2)N(S(=O)(=O)c2ccc(C)cc2)C[C@H]1C(=O)O
14,81.4,COc1ccc(S[C@@H]2C[C@@H](c3cccc(Br)c3)N(S(=O)(=O)c3ccc(C)cc3)C[C@H]2C(=O)O)cc1
15,63.1,Cc1ccc(S(=O)(=O)N2C[C@@H](C(=O)O)[C@H](SCc3ccccc3)C[C@H]2c2ccc3c(c2)OCO3)cc1
16,79.7,Cc1ccc(S(=O)(=O)N2C[C@@H](C(=O)O)[C@H](SCC(C)C)C[C@H]2c2cccc(Cl)c2)cc1
17,72.6,CCCCS[C@@H]1C[C@@H](c2ccc(C)cc2)N(S(=O)(=O)c2ccccc2)C[C@H]1C(=O)O
18,75,CCCS[C@@H]1C[C@@H](c2cc(OC)c(OC)c(OC)c2)N(S(=O)(=O)c2ccc(C)cc2)C[C@H]1C(=O)O
19,91.5,COc1ccc([C@@H]2C[C@@H](SC3CCCC3)[C@H](C(=O)O)CN2S(=O)(=O)c2ccc(C)cc2)cc1
20,59.8,CCCCCS[C@@H]1C[C@@H](c2ccc(Cl)cc2)N(S(=O)(=O)c2ccc(C)cc2)C[C@H]1C(=O)O
